Reference: patent publication US7638639B2, “Substituted pyrrolidine and related compounds” (Theravance, Inc., priority 2003, dated 2009)

Assays:
[1] = biological target: T1, hM3 muscarinic receptor subtype (Homo sapiens, UniProt P20309); test: Radioligand binding assay ([3H]-NMS displacement), hM3
T1 construct: expressed in transfected cells
Protocol: A. Membrane Preparation from Cells Expressing hM1, hM2, hM3 and hM4 Muscarinic Receptor Subtypes
CHO (Chinese hamster ovary) cell lines stably expressing cloned human hM1, hM2, hM3 and hM4 muscarinic receptor subtypes, respectively, were grown to near confluency in medium consisting of HAM's F-12 supplemented with 10% FBS (Fetal Bovine Serum) and 250 μg/mL Geneticin. The cells were grown in a 5% CO2, 37° C. incubator and lifted with 2 mm EDTA in dPBS. Cells were collected by 5 minute centrifugation at 650×g, and cell pellets were either stored frozen at −80° C. or membranes were prepared immediately. For membrane preparation, cell pellets were resuspended in lysis buffer and homogenized with a Polytron PT-2100 tissue disrupter (Kinematica AG; 20 seconds×2 bursts). Crude membranes were centrifuged at 40,000×g for 15 minutes at 4° C. The membrane pellet was then resuspended with resuspension buffer and homogenized again with the Polytron tissue disrupter. The protein concentration of the membrane suspension was determined by the method described in Lowry, O. et al., 1951, […]: 193, 265. All membranes were stored frozen in aliquots at −80° C. or used immediately. Aliquots of prepared hM5 receptor membranes were purchased directly from Perkin Elmer and stored at −80° C. until use.
B. Radioligand Binding Assay on Muscarinic Receptor Subtypes hM1, hM2, hM3, hM4 and hM5
Radioligand binding assays were performed in 96-well microtiter plates in a total assay volume of 100 μL. CHO cell membranes stably expressing either the hM1, hM2, hM3, hM4 or hM5 muscarinic subtype were diluted in assay buffer to the following specific target protein concentrations (μg/well): 10 μg for hM1, 10-15 μg for hM2, 10-20 μg for hM3, 10-20 μg for hM4, and 10-12 μg for hM5. The membranes were briefly homogenized using a Polytron tissue disruptor (10 seconds) prior to assay plate addition. Saturation binding studies for determining KD values of the radioligand were performed using L-[N-methyl-3H]scopolamine methyl chloride ([^3H]-NMS) (TRK666, 84.0 Ci/mmol, Amersham Pharmacia Biotech, Buckinghamshire, England) at concentrations ranging from 0.001 nM to 20 nM. Displacement assays for determination of Ki values of test compounds were performed with [^3H]-NMS at 1 nM and eleven different test compound concentrations. The test compounds were initially dissolved to a concentration of 400 μM in dilution buffer and then serially diluted 5× with dilution buffer to final concentrations ranging from […] to […]. The addition order and volumes to the assay plates were as follows: 25 μL radioligand, 25 μL diluted test compound, and 50 μL membranes. Assay plates were incubated for 60 minutes at 37° C. Binding reactions were terminated by rapid filtration over GF/B glass fiber filter plates (PerkinElmer Inc., Wellesley, Mass.) pre-treated in 1% BSA. Filter plates were rinsed three times with wash buffer (10 mm HEPES) to remove unbound radioactivity. Plates were then air dried, and 50 μL Microscint-20 liquid scintillation fluid (PerkinElmer Inc., Wellesley, Mass.) was added to each well. The plates were then counted in a PerkinElmer Topcount liquid scintillation counter (PerkinElmer Inc., Wellesley, Mass.). Binding data were analyzed by nonlinear regression analysis with the GraphPad Prism Software package (GraphPad Software, Inc., San Diego, Calif.) using the one-site competition model. Ki values for test compounds were calculated from observed IC50 values and the KD value of the radioligand using the Cheng-Prusoff equation (Cheng Y; Prusoff W H. (1973) Biochemical Pharmacology, 22(23):3099-108). Ki values were converted to pKi values to determine the geometric mean and 95% confidence intervals. These summary statistics were then converted back to Ki values for data reporting.

hM2 receptor = biological target: T2, hM2 receptor (Homo sapiens, UniProt P08172); test: Blockade of agonist-mediated [35S]GTPγS binding; format: biochemical; conditions: CHO-K1 cells expressing the hM2 receptor; read-out: Ki for blockade of oxotremorine-stimulated [35S]GTPγS binding
T2 construct: expressed in transfected cells
T2 sequence (P08172 1-466): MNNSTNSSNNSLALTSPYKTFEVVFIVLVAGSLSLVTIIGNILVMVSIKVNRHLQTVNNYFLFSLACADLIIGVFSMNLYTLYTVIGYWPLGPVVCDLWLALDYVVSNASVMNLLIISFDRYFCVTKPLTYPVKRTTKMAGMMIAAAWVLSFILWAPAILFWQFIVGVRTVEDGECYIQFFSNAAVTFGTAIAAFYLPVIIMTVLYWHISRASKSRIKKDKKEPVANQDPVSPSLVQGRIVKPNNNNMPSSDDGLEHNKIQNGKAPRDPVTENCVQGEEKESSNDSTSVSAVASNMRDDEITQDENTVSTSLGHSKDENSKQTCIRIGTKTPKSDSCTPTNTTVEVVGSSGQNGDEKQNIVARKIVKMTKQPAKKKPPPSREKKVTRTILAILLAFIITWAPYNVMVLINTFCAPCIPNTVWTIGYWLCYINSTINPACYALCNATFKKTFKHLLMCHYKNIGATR
Protocol: B. Blockade of Agonist-Mediated GTPγ[^35S] Binding
In a second functional assay, the functional potency of a test compound is determined by measuring the ability of the compound to block oxotremorine-stimulated [^35S]GTPγS binding in CHO-K^1 cells expressing the hM2 receptor. At the time of use, frozen membranes were thawed and then diluted in assay buffer with a final target tissue concentration of 5-10 μg protein per well. The membranes were briefly homogenized using a Polytron PT-2100 tissue disrupter and then added to the assay plates.
The EC90 value (effective concentration for 90% maximal response) for stimulation of [^35S]GTPγS binding by the agonist oxotremorine was determined in each experiment.
The assay plates were then incubated at 37° C. for 60 minutes. The assay plates were filtered over 1% BSA-pretreated GF/B filters using a PerkinElmer 96-well harvester. The plates were rinsed with ice-cold wash buffer for 3×3 seconds and then air or vacuum dried. Microscint-20 scintillation liquid (50 μL) was added to each well, and each plate was sealed and radioactivity counted on a topcounter (PerkinElmer). Data were analyzed by nonlinear regression analysis with the GraphPad Prism Software package (GraphPad Software, Inc., San Diego, Calif.) using the non-linear regression, one-site competition equation. […]

T1 sequence (P20309 whole entry): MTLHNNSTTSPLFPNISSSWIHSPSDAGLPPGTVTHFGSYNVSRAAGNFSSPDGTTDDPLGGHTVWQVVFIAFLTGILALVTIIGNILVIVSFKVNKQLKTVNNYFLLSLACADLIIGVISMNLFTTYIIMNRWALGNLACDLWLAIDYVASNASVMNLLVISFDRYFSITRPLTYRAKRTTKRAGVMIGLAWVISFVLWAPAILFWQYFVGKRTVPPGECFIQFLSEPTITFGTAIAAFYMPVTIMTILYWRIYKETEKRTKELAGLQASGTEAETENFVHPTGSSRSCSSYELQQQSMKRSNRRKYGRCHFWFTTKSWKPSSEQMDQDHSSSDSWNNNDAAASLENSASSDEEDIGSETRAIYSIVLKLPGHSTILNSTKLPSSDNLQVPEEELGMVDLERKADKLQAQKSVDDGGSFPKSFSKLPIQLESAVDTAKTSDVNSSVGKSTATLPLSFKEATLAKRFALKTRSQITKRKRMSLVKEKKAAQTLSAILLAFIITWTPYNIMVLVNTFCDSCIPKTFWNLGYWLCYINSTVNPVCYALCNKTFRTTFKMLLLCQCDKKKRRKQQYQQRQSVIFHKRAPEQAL

- Ki ([1]; CHO cell membranes, [3H]-NMS 1 nM, read-out: hM3 binding affinity (Ki)): 0.96 nM
- Δ hM3: change in binding affinity relative to compound of the invention ([1]; ratio of hM3 Ki values): ×2.6
- Ki (hM2 receptor): < 5 nM
Compound: CNCCCCCCCCN1CC[C@@H](C(C(N)=O)(c2ccccc2)c2ccccc2)C1 [Example 1, 2-[(S)-1-(8-Methylaminooctyl)pyrrolidin-3-yl]-2,2-diphenylacetamide]
